Experimental data published in ChEMBL document CHEMBL5113372, “Paradigm shift of "classical" HDAC inhibitors to "hybrid" HDAC inhibitors in therapeutic interventions” (Eur J Med Chem, 2021).
Each block holds one compound with its values, some of them ahead of it.

Legend:
A549 [1] = test: Antiproliferative activity against human A549 cells assessed as inhibition of cell viability treated for 12 to 48 hrs by MTT assay; type: functional, cell-based
A549 [2] = test: Antitumor activity against human A549 cells xenografted in BALB/c mouse assessed as tumor growth inhibition measured every 2 days for 2 to 3 weeks by caliper method relative to control; type: functional; settings: time 2 day
Androgen receptor = Androgen receptor (Rattus norvegicus, UniProt P15207); test: Displacement of [3H]-mibolerone from rat androgen receptor incubated for 4 hrs by radioligand binding assay
Chain of Androgen receptor (P15207 whole entry S389L): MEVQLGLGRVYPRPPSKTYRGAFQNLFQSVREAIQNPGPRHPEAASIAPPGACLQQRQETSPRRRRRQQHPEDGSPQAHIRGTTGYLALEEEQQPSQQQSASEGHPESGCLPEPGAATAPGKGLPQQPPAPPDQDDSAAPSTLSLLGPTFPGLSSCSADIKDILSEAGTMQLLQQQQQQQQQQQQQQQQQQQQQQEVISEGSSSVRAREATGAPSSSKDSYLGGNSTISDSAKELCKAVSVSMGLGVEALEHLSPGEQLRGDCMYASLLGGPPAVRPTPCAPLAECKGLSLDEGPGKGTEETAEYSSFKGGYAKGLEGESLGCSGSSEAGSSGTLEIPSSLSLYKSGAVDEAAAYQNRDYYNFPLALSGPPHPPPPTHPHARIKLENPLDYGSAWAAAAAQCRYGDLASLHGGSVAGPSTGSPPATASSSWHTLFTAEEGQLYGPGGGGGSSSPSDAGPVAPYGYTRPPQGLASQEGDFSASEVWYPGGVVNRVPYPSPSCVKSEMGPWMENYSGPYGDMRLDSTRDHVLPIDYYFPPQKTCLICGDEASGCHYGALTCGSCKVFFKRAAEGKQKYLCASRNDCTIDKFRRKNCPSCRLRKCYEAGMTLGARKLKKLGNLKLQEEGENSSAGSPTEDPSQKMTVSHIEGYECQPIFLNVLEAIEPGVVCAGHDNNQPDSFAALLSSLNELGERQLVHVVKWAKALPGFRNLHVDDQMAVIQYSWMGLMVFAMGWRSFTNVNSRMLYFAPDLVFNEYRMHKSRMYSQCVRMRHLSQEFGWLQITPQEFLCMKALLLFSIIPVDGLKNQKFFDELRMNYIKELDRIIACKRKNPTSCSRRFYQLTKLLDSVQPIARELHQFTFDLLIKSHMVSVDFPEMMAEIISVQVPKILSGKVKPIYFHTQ

LNCaP = test: Antiproliferative activity against human LNCaP cells expressing androgen receptor assessed as inhibition of cell viability; type: functional, cell-based
DU-145 = test: Antiproliferative activity against human DU-145 assessed as inhibition of cell viability incubated for 72 hrs by MTT/MTS assay; type: functional, cell-based; settings: DU-145, 72 h
Histone deacetylase 1 [3] = target: T1, Histone deacetylase 1 (Homo sapiens, UniProt Q13547); test: Inhibition of HDAC1 (unknown origin) using RHKK(Ac) as substrate incubated for 30 mins by fluorescence based assay
T1 sequence (Q13547 whole entry): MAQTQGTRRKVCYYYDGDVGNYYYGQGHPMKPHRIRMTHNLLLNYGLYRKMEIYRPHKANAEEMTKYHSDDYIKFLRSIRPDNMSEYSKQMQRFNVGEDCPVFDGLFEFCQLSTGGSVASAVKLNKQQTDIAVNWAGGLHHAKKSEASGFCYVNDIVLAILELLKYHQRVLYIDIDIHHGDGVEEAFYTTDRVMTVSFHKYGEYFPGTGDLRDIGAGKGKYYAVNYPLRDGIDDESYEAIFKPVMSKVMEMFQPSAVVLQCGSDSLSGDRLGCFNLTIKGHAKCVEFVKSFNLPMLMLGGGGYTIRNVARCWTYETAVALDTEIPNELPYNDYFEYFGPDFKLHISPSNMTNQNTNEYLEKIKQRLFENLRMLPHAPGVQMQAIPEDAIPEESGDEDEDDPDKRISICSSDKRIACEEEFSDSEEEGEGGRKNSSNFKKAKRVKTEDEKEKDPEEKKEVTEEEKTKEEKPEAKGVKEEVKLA

[4] = target: Lysine-specific histone demethylase 1A (Homo sapiens, UniProt O60341); test: Inhibition of LSD1 (unknown origin) using diMeK4H31-21 as substrate preincubated for 5 mins followed by substrate addition measured for 5 mins by absorbance based assay
[5] = Antiproliferative activity against human WM983B cells assessed as cell growth inhibition; type: functional, cell-based
SK-MEL-5 = test: Antitumor activity against human SK-MEL-5 cells xenografted in BALB/c mouse assessed as reduction in tumor volume at 30 mg/kg, ip qd measured after 4 weeks by caliper method relative to control; type: functional; parameters: scale not given: the % may be the effect or the level left
[6] = target: T2, Protein deacetylase HDAC6 (Homo sapiens, UniProt Q9UBN7); test: Inhibition of recombinant human HDAC6 expressed in baculovirus infected Hi-5 insect cells using Boc-Lys (epsilon-acetyl)-AMC as substrate incubated for 3 to 24 hrs by fluorescence based assay
T2 sequence (Q9UBN7 whole entry): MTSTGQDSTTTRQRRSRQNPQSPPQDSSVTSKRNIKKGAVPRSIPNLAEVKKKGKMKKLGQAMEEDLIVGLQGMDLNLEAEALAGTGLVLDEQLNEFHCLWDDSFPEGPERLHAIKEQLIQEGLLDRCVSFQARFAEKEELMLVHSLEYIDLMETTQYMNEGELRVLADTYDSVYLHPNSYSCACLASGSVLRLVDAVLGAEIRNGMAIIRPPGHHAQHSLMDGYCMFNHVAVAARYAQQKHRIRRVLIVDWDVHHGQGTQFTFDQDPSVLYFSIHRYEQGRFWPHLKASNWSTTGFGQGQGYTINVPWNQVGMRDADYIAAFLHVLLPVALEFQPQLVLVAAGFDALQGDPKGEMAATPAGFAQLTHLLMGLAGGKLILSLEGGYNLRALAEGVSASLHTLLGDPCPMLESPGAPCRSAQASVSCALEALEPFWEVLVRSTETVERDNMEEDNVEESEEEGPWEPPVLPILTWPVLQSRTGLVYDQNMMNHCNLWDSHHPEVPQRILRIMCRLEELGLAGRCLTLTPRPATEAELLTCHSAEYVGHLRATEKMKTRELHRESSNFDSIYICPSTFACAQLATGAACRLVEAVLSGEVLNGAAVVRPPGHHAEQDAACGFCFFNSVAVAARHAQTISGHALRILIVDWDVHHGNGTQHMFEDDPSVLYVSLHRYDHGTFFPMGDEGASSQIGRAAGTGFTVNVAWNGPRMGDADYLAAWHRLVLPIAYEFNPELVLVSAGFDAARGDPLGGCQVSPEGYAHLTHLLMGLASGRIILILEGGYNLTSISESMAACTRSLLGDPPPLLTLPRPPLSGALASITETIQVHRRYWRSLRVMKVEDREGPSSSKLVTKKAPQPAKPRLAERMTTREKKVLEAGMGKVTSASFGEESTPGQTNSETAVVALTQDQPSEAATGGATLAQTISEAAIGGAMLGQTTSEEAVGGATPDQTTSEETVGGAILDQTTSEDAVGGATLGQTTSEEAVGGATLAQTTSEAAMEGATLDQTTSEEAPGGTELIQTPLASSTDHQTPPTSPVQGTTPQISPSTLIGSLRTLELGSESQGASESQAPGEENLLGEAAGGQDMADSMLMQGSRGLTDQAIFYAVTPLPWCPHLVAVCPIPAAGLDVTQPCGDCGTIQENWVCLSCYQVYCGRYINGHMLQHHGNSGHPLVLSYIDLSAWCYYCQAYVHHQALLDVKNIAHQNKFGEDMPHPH

SMMC-7721 = test: cells; type: functional, cell-based; settings: Homo sapiens, SMMC-7721, 48 h
Histone deacetylase 1 [7] = target: T1, Histone deacetylase 1; test: Inhibition of recombinant human HDAC1 using Boc-Lys (Ac)-AMC as substrate incubated for 60 mins by fluorescence based assay
[8] = target: T2, Protein deacetylase HDAC6; test: Inhibition of HDAC6 (unknown origin)
Histone deacetylase 1 [9] = target: T1, Histone deacetylase 1; test: Inhibition of HDAC1 (unknown origin)
NCI-H1975 = test: Cytotoxicity against human NCI-H1975 cells assessed as cell growth inhibition; type: functional, cell-based
A549 [10] = test: Cytotoxicity against human A549 cells assessed as cell growth inhibition; type: functional, cell-based
[11] = target: Epidermal growth factor receptor (Homo sapiens, UniProt P00533); test: Inhibition of EGFR (unknown origin)
Chain of Epidermal growth factor receptor (P00533 whole entry): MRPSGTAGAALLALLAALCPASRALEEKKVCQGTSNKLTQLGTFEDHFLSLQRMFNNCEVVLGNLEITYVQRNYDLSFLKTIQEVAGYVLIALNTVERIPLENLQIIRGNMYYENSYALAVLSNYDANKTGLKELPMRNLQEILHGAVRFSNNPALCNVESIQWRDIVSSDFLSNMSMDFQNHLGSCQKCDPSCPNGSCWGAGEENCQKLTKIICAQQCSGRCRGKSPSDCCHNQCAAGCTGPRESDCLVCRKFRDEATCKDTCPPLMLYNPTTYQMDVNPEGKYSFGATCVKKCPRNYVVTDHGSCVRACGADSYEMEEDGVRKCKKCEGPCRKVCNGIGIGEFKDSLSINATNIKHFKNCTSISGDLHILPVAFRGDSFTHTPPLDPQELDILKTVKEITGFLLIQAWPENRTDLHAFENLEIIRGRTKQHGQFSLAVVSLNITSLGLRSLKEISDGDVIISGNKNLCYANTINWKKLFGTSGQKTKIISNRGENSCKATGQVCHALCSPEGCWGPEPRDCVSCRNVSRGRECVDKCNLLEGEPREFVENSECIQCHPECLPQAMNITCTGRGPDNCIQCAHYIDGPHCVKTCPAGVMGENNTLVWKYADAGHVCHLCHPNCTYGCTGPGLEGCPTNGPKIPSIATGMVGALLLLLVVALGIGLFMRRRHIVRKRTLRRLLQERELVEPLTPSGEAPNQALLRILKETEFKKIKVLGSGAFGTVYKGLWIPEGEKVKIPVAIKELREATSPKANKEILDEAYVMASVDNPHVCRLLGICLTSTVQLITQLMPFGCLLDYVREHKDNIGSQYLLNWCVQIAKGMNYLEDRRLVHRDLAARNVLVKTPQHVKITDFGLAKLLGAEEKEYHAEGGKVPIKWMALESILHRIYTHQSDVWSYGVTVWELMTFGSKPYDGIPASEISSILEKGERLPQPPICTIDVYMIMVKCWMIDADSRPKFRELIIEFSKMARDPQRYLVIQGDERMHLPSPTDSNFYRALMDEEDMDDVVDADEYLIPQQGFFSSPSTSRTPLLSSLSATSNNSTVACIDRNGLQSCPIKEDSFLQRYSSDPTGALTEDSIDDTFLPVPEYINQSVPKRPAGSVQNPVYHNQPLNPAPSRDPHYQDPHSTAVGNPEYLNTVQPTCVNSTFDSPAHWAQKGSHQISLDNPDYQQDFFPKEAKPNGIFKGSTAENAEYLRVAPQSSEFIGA

SK-BR-3 = test: Cytotoxicity against human SK-BR-3 cells assessed as cell growth inhibition; type: functional, cell-based
BT-474 = test: Cytotoxicity against human BT-474 cells assessed as cell growth inhibition; type: functional, cell-based
A-431 = test: Cytotoxicity against human A-431 cells assessed as cell growth inhibition; type: functional, cell-based
Vitamin D3 receptor = Vitamin D3 receptor (Homo sapiens, UniProt P11473); test: Displacement of fluorescent tracer from VDR (unknown origin) by fluorescence polarisation competition assay
Chain of Vitamin D3 receptor (P11473 whole entry): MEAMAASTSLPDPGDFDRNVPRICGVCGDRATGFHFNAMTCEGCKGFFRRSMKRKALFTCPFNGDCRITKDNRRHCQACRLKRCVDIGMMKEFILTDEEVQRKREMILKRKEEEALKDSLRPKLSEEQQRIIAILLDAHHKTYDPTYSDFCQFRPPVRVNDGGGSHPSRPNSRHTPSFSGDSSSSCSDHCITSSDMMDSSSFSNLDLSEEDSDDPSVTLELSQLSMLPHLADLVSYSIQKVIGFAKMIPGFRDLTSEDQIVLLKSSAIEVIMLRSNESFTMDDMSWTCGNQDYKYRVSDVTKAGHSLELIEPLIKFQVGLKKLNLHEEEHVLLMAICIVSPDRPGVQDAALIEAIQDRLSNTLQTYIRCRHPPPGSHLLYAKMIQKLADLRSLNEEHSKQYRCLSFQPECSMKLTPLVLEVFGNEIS

MCF7 [12] = test: Cytotoxicity against human MCF7 cells assessed as cell growth inhibition by trypan blue dye based light microscopy; type: functional
Jurkat = test: Cytotoxicity against human Jurkat cells assessed as cell growth inhibition by trypan blue dye based light microscopy; type: functional
Histone deacetylase 1 [13] = target: T1, Histone deacetylase 1; test: Inhibition of recombinant human HDAC1 using fluorogenic substrate measured after 60 mins by fluorescence based assay
Histone deacetylase 1 [14] = target: T1, Histone deacetylase 1; test: Inhibition of HDAC1 (unknown origin) using Boc-Lys(Ac)-7-amino-4-methylcoumarin (BocLys(Ac)-AMC) as substrate incubated for 30 mins by fluorescence based assay
[15] = target: T2, Protein deacetylase HDAC6; test: Inhibition of HDAC6 (unknown origin) using Boc-Lys(Ac)-7-amino-4-methylcoumarin (BocLys(Ac)-AMC) as substrate incubated for 30 mins by fluorescence based assay
HeLa = test: Antiproliferative activity against human HeLa cells assessed as cell growth inhibition incubated for 72 hrs by CCK-8 assay; type: functional, cell-based
Histone deacetylase 2 = Histone deacetylase 2 (Homo sapiens, UniProt Q92769); test: Inhibition of recombinant human HDAC2 using HDAC substrate incubated for 30 mins by fluorescence based microplate reader analysis
Chain of Histone deacetylase 2 (Q92769 whole entry): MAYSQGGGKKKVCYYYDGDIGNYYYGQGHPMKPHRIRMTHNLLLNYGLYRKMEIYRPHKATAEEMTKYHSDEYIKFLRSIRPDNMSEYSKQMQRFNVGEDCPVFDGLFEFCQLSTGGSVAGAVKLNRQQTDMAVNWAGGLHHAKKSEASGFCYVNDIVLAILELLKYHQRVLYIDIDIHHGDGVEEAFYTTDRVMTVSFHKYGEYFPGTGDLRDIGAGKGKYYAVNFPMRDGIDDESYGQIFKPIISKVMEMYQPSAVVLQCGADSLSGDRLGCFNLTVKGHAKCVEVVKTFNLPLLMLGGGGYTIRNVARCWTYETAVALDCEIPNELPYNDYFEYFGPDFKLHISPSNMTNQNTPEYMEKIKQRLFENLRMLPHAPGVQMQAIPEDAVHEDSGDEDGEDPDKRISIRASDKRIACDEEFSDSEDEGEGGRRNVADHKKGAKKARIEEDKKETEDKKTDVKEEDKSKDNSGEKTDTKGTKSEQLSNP

[16] = target: T2, Protein deacetylase HDAC6; test: Inhibition of recombinant human HDAC6 using HDAC substrate incubated for 30 mins by fluorescence based microplate reader analysis
HepG2 = test: Antiproliferative activity against human HepG2 cells assessed as cell growth inhibition incubated for 72 hrs by CCK-8 assay; type: functional, cell-based; settings: HepG2, 72 h
A549 [17] = test: Antiproliferative activity against human A549 cells assessed as cell growth inhibition incubated for 72 hrs by CCK-8 assay; type: functional, cell-based; settings: A549, 72 h
MCF7 [18] = test: Antiproliferative activity against human MCF7 cells assessed as cell growth inhibition incubated for 72 hrs by CCK-8 assay; type: functional, cell-based; settings: MCF7, 72 h
PC-3 = test: Antiproliferative activity against human PC-3 cells assessed as cell growth inhibition incubated for 72 hrs by CCK-8 assay; type: functional, cell-based; settings: PC-3, 72 h
Histone deacetylase 1 [19] = target: T1, Histone deacetylase 1; test: Inhibition of recombinant human HDAC1 using HDAC substrate incubated for 30 mins by fluorescence based microplate reader analysis
Histone deacetylase 1 [20] = target: T1, Histone deacetylase 1; test: Inhibition of recombinant human HDAC1 using Boc-L-Lys (Ac)-AMC as substrate incubated for 35 mins by microplate reader analysis

Compound: C=C(c1ccc(C(=O)NO)cc1)c1cc2c(cc1C)C(C)(C)CCC2(C)C
IC50 (A549 [1]): 4900 nM
TGI (A549 [2]): 53%

Compound: CC1(C)C(=O)N(c2ccc(C#N)c(C(F)(F)F)c2)C(=O)N1Cc1ccc(-c2cn(CCCCCCC(=O)NO)nn2)cc1
IC50 (Androgen receptor): 690 nM
IC50 (LNCaP): 1100 nM
IC50 (DU-145): 1000 nM

Compound: C=C1/C(=C\C=C2/CCC[C@@]3(C)[C@@H]2CC[C@H]3[C@@H](C)/C=C(C)/C=C/C(=O)NO)C[C@H](O)C[C@@H]1O
IC50 (Vitamin D3 receptor): 87 nM

Compound: O=C(CCn1cc(CCn2nc3c(Br)c(Br)c(Br)c(Br)c3n2)nn1)NO
IC50 (MCF7 [12]): 4260 nM
IC50 (Jurkat): 2870 nM
IC50 (Histone deacetylase 1 [13]): 2200 nM

Compound: C[C@H]1COc2c(N3CCN(C)CC3)c(F)cc3c(=O)c(C(=O)NCC4CN(CC(=O)NO)N=N4)cn1c23 (stereo partly specified)
IC50 (HeLa): 1100 nM
IC50 (Histone deacetylase 2): 41 nM
IC50 [16]: 21 nM
IC50 (HepG2): 2300 nM
IC50 (A549 [17]): 2100 nM
IC50 (MCF7 [18]): 300 nM
IC50 (PC-3): 4900 nM
IC50 (Histone deacetylase 1 [19]): 29 nM

The next lines start with results.

IC50 (Histone deacetylase 1 [3]): 140 nM
IC50 [4]: 100 nM
Compound: Nc1ccccc1NC(=O)c1ccc(CCCC(=O)Nc2ccc(C3CC3N)cc2)cc1 (stereo unspecified)
IC50 [5]: 200 nM
Activity (SK-MEL-5): <=61%

IC50 [6]: 2770 nM
Compound: COCCOc1cc2ncnc(Nc3ccc(/C=C/C(=O)NO)cc3)c2cc1OCCOC

IC50 (SMMC-7721): 4930 nM
IC50 (Histone deacetylase 1 [7]): 58 nM
Compound: CC(C)=CCC/C(C)=C/CC/C(C)=C/CSc1ccccc1C(=O)NCCCCC(=O)NO

IC50 [8]: 4.3 nM
IC50 (Histone deacetylase 1 [9]): 1.1 nM
IC50 [11]: 10.3 nM
Compound: O=C(CCCCCCN1CC(c2ccc3ncnc(Nc4ccc(Br)cc4F)c3c2)N=N1)NO (stereo unspecified)
IC50 (NCI-H1975): 7850 nM
IC50 (A549 [10]): 710 nM
IC50 (SK-BR-3): 10900 nM
IC50 (BT-474): 5130 nM
IC50 (A-431): 260 nM

IC50 (Histone deacetylase 1 [14]): 14300 nM
IC50 [15]: 580000 nM
Compound: CCC(CC)(c1ccc(OCC(=O)NO)c(C)c1)c1ccc(OCC(O)C(C)(C)C)c(C)c1 (stereo unspecified)

IC50 (Histone deacetylase 1 [20]): 1820 nM
IC50 [8]: 1300 nM
Compound: O=C(CCCCc1cn(-c2ccc(C(=O)c3c(-c4ccc(O)cc4)sc4cc(O)ccc34)cc2)nn1)NO
